The test system of data set [1] is secretion of PGE2 by A549 cells stimulated with IL-1β. Put plainly: Inhibition of the secretion of PGE2 by A549 cells stimulated with IL-1β. Type of data set: cell-based. The note with it: Homo sapiens, IL-1β 0.2 ng/mL. The text has this:
The method described here was used for determining the inhibition activity of the present compounds on the secretion of PGE2 by A549 cells stimulated with IL-1β.
• 1. PGE2 Assay kit (Cisbio, #62P2APEB) • 2. IL-1β (Peprotech, # AF-200-01B) • 3. Cell line: A549 (ATCC: CCL-185) • 4. FlexStation3 microplate reader. II. Experimental Procedure
On the first day, A549 cells were inoculated in a 96-well plate at 40000/well. On the second day, the culture medium in the 96-well plate was removed and then added with 90 μL of compound diluted with culture medium (the concentration of each compound at seven gradient concentrations was 11111 nM, […], 1.11 nM, 0.11 nM and 0.011 nM). The cells were incubated for 30 minutes at 37° C. in an incubator, and then added with IL-1β to a final concentration of 0.2 ng/mL. Then, the cells were incubated for another 24 hours at 37° C. On the third day, 10 μl of supernatant, 5 μL of PGE2-d2 and 5 μL of anti-PGE2 Cryptate were added into a black 384-well plate, and then incubated at 4° C. overnight. HTRF was determined using Flexstation, and the IC50 of the compounds was obtained by data processing software.
The inhibition activity of the present compounds on the secretion of PGE2 by A549 cells stimulated with IL-1β was determined by the assay described above.

Data set [2] can be described thus: Pharmacokinetics assay in rats. The note with it: both sexes, Sprague-Dawley, rat, plasma, po, SD rats, intragastric, 5 mg/kg; for Vd/F: read-out: Apparent Distribution Volume Vz/F; for AUC: read-out: Area Under Curve AUC; for CL/F: read-out: Clearance CLz/F; for half-life: read-out: Half-Life T½ (converted); for MRT: read-out: Mean Residence Time MRT; for Cmax: read-out: Plasma Conc. Cmax. Format: in vivo. As for the experimental part:
Rats were used as test animals. The drug concentration in plasma at different time points was determined by LC/MS/MS after administration of the compounds of Example 8, Example 11, Example 14, Example 17, Example 20, Example 27, Example 33, Example 35, Example 36, Example 37 and Example 48 to rats. The pharmacokinetic behavior of the present compounds was studied and evaluated in rats.
Forty four (44) healthy adult Sprague-Dawley (SD) rats, half male and half female, which were purchased from SINO-BRITSH SIPPR/BK LAB. ANIMAL LTD., CO, with Certificate No.: SCXK (Shanghai) 2008-0016, were divided into 11 groups, with 4 rats in each group.
The appropriate amount of test compounds was weighed, and mixed with 25 μL Tween 80 and Labrasol to prepare a 0.6 mg/mL suspension by ultrasonication.
After an overnight fast, 44 SD rats, half male and half female, were divided into 11 groups, and administered intragastrically at a dose of 5.0 mg/kg and an administration volume of 10 mL/kg.
Blood (0.1 mL) was sampled from the orbital sinus before administration and 0.5 h, 1.0 h, 2.0 h, 4.0 h, 6.0 h, 8.0 h, 11.0 h, and 24.0 h after administration. The samples were stored in EDTA anticoagulation tubes, and centrifuged for 5 minutes at 3,500 rpm to separate the blood plasma. The plasma samples were stored at −20° C. The rats were fed 2 hours after administration.
The plasma concentration of the test compounds in rat after intragastric administration was determined by LC-MS/MS. The linearity of the method is 5.00-2000 ng/mL and 1.00-2000 ng/ml, and the minimum of quantification is 5.00 ng/mL and 1.00 ng/mL.
Plasma samples were analyzed after pretreatment by protein precipitation.

A further data set has as its target human mPGES1 (Homo sapiens (Human), UniProt O14684). Put plainly: Inhibition activity for human mPGES1 (enzyme assay, PGE2 HTRF). Type of data set: biochemical. The note with it: membrane protein from HEK-293 F transfected with human mPGES1. As for the experimental part:
The method described here is used for determining the inhibition activity of the present compounds for human mPGES1.
• 1. PGE2 Assay kit (Cisbio, #62P2APEB) • 2. Prostaglandin H2 (Sigma, #P7867-1MG) • 3. FlexStation3 microplate reader. II. Experimental Procedure • 1. Obtaining the membrane proteins of mPGES1 enzyme
The cell density of HEK-293 F was grown to 6×10^5 per milliliter and was transferred with the plasmid containing human mPGES1 gene by transfection reagent PEI the next day. The cells were continuously cultured for 72 hours at 37° C. with shaking. After centrifuging at 1100 g for 5 minutes, the cells were harvested. After ultrasonication in an ice bath and centrifugation at 5000 g for 10 minutes, the supernatant was obtained. The supernatant was centrifuged at 100000 g for 1 hour to obtain a precipitate. The precipitate was resuspended with storage buffer containing 10% glycerinum, subpackaged and frozen rapidly under liquid nitrogen, and stored at −80° C. • 2. mPGES1 enzyme assay
mPGES1 was diluted with assay buffer and added into plate at 49 μL/well supplemented with 1 μL of compound (the final concentration of each compound at seven gradient concentrations was 10000 nM, 1000 nM, 100 nM, 10 nM, 1 nM, 0.1 nM and 0.01 nM). […] Then, each well was added with 53.8 μL of 6 mg/mL SnCl2 to quench the reaction. The sample was diluted with dilute buffer at 1:400. 10 μl of diluted sample, 5 μL PGE2-d2 and 5 μL anti-PGE2 Cryptate were added to a black 384-well plate, and incubated at 4° C. overnight. HTRF was determined using Flexstation, and the IC50 of the compounds was obtained by data processing software.
The inhibition activity of the present compounds on mPGES1 was tested by the assay described above.
For orientation: In TR-FRET formats the signal depends on donor and acceptor labels being close together.

Chain of human mPGES1 (O14684 whole entry): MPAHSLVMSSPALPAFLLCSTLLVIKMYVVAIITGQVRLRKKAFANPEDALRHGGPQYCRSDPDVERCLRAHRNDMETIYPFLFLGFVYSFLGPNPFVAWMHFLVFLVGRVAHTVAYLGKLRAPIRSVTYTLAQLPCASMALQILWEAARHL

The term IC50 denotes the concentration needed to halve the response being measured. A low value points to greater potency in that assay. The term AUC denotes the area under the concentration-time curve, a measure of exposure. The half-life is how long it takes for the measured level to halve. A word on the MRT: it is a mean duration of stay, worked out from the concentration-time curve. A word on the Cmax: it is the peak of the concentration-time curve. Turning to `CCn1c(-c2ccc(F)cc2)cc2cc(NC(=O)c3cc(CNC(=O)C(C)(C)C)ccc3Cl)ccc21` [Example 8, 2-Chloro-N-(1-ethyl-2-(4-fluorophenyl)-1H-indol-5-yl)5-((2,2-dimethylpropanoylamino)methyl)-benzamide], in data set [1] (A549, 24 h), the IC50 is 19.1 nM. Besides, in data set [2], the Vd/F was 10.5 ± 4.66 L/kg, the AUC is 2900 ± 1340 ng·h/mL, the CL/F stood at 32.7 ± 13.1 mL/min/kg and the half-life was 4.69 ± 3.74 h. Besides, in data set [2], the MRT stood at 8.21 ± 4.88 h and the Cmax is 346 ± 155 ng/mL. Moreover, 3.88 nM corresponded to half-maximal inhibition at human mPGES1 (IC50).

As for `Cn1c(-c2ccc(F)cc2)cc2cc(NC(=O)c3cc(CNC(=O)C(C)(C)C)ccc3Cl)ccc21` [Example 11, 2-chloro-N-(2-(4-fluorophenyl)-1-methyl-1H-indol-5-yl)-5-((2,2-dimethylpropanoylamino)methyl)benzamide], the IC50 in data set [1] (A549, 24 hours) came out at 16.3 nM. In data set [2], the Vd/F came to 5.83 ± 1.14 L/kg, the AUC came out at 7230 ± 5320 ng·h/mL, the CL/F was determined as 19.2 ± 14.1 mL/min/kg and the half-life was 5.27 ± 3.25 h. For the same molecule, in data set [2], the MRT turned out to be 10.4 ± 5.1 h and the Cmax is 572 ± 167 ng/mL. At human mPGES1, this molecule gave an IC50 of 5.14 nM.

The molecule `CC(C)(F)C(=O)NCc1cnc(C(F)F)c(C(=O)Nc2ccc3oc(-c4cccc(C(F)(F)F)c4)cc3c2)c1` [Example 48, 2-(Difluoromethyl)-5-(((2-fluoro-2-methyl-propanoyl)amino)methyl)-N-(2-(3-(trifluoromethyl)phenyl)benzofuran-5-yl)nicotinamide] yielded an IC50 in data set [1] (A549, 24 hours) of 14.1 nM. In data set [2], the Vd/F was determined as 7.53 ± 1.69 L/kg, the AUC worked out at 2260 ± 767 ng·h/mL, the CL/F worked out at 41 ± 16.7 mL/min/kg and the half-life was 2.3 ± 0.76 h. In data set [2], the MRT worked out at 6.3 ± 1.62 h and the maximum concentration (Cmax) stood at 263 ± 66 ng/mL. On human mPGES1, this molecule came in with an IC50 of 3.58 nM.

On to `CCn1c(-c2cccc(Cl)c2)cc2nc(NC(=O)c3cc(CNC(=O)C(C)(C)F)cnc3C(F)F)ccc21` [Example 37, N-(2-(3-Chlorophenyl)-1-ethyl-1H-pyrrolo[3,2-b]pyridin-5-yl)-2-(difluoromethyl)-5-(((2-fluoro-2-methyl-propanoyl)amino)methyl)nicotinamide], for which, in data set [1] (A549, 24 hours), the 50% inhibitory concentration (IC50) worked out at 22.4 nM. In data set [2], the Vd/F stood at 1.39 ± 0.17 L/kg, the AUC amounted to 23200 ± 14200 ng·h/mL, the CL/F stood at 5.44 ± 4.31 mL/min/kg and the half-life is 4.49 ± 2.93 h. Besides, in data set [2], the mean residence time (MRT) is 7.34 ± 3.76 h and the Cmax amounted to 2350 ± 676 ng/mL. In addition, the midpoint of inhibition at human mPGES1, the IC50, lay at 6.46 nM.

On to `Cn1c(-c2cccc(Cl)c2)cc2cc(NC(=O)c3cc(CNC(=O)C(C)(C)F)cnc3C(F)F)ccc21` [Example 33, N-(2-(3-Chlorophenyl)-1-methyl-1H-indol-5-yl)-2-(difluoromethyl)-5-(((2-fluoro-2-methyl-propanoyl)amino)methyl)nicotinamide], for which inhibition in data set [1] (A549, 24 hours) was half-maximal at 12.8 nM (IC50). Also, in data set [2], the Vd/F was determined as 4.82 ± 0.961 L/kg, the AUC worked out at 5720 ± 1210 ng·h/mL, the MRT was found to be 7.6 ± 1.09 h and the Cmax was 557 ± 80 ng/mL. At human mPGES1, the IC50 turned out to be 5.33 nM.

In data set [1] (A549, 24 hours), `Cn1c(-c2cccc(Cl)c2)cc2nc(NC(=O)c3cc(CNC(=O)C(C)(C)F)cnc3C(F)F)ccc21` [Example 35, N-(2-(3-Chlorophenyl)-1-methyl-1H-pyrrolo[3,2-b]pyridin-5-yl)-2-(difluoromethyl)-5-(((2-fluoro-2-methyl-propanoyl)amino)methyl)nicotinamide] displayed an IC50 of 31.6 nM. In addition, in data set [2], the Vd/F came out at 1.85 ± 0.576 L/kg, the AUC was found to be 37400 ± 36700 ng·h/mL, the CL/F turned out to be 4.69 ± 3.72 mL/min/kg and the half-life was 11.3 ± 14.5 h. In data set [2], the MRT worked out at 18.8 ± 20.6 h and the Cmax was 1510 ± 517 ng/mL. The molecule further had an IC50 against human mPGES1 of 4.07 nM.

Molecule `Cn1c(-c2cccc(Cl)c2)cc2cc(NC(=O)c3cc(CNC(=O)C(C)(C)F)cnc3C(F)F)ncc21` [Example 36, N-(2-(3-Chlorophenyl)-1-methyl-1H-pyrrolo[2,3-c]pyridin-5-yl)-2-(difluoromethyl)-5-(((2-fluoro-2-methyl-propanoyl)amino)methyl)nicotinamide] returned an IC50 in data set [1] (A549, 24 hours) of 13.2 nM. In data set [2], the Vd/F worked out at 7.22 ± 1.34 L/kg, the AUC worked out at 3540 ± 1970 ng·h/mL, the CL/F turned out to be 30.4 ± 17 mL/min/kg and the half-life was 3.69 ± 2.4 h. Besides, in data set [2], the MRT turned out to be 6.56 ± 3.01 h and the Cmax was 459 ± 157 ng/mL. The IC50 at human mPGES1 amounted to 4.19 nM.

`COCCn1c(-c2ccc(C(F)(F)F)cc2)cc2cc(NC(=O)c3cc(CNC(=O)C(C)(C)F)cnc3C(F)F)ccc21` [Example 27, 2-(Difluoromethyl)-5-(((2-fluoro-2-methyl-propanoyl)amino)methyl)-N-(1-(2-methoxyethyl)-2-(4-(trifluoromethyl)phenyl)-1H-indol-5-yl)nicotinamide] registered an IC50 in data set [1] (A549, 24 hours) of 13.4 nM. Also, in data set [2], the Vd/F came out at 15.1 ± 1.53 L/kg, the AUC was 1180 ± 247 ng·h/mL, the CL/F was 73.3 ± 15.3 mL/min/kg and the half-life was 2.46 ± 0.59 h. In data set [2], the MRT amounted to 5.32 ± 1.03 h and the Cmax was 193 ± 23 ng/mL. Further, half-maximal inhibition on human mPGES1 (IC50) required 4.77 nM.

Molecule `CCn1c(-c2ccc(C(F)(F)F)cc2)cc2cc(NC(=O)c3cc(CNC(=O)C(C)(C)F)cnc3C(F)F)ccc21` [Example 17, 2-(Difluoromethyl)-N-(1-ethyl-2-(4-(trifluoromethyl)phenyl)-1H-indol-5-yl)-5-(((2-fluoro-2-methyl-propanoyl)amino)methyl)nicotinamide] gave an IC50 in data set [1] (A549, 24 hours) of 12.1 nM. Also, in data set [2], the Vd/F was 20.2 ± 2.6 L/kg, the AUC stood at 2000 ± 650 ng·h/mL, the CL/F was 45.3 ± 15.3 mL/min/kg and the half-life is 5.44 ± 1.23 h. Moreover, in data set [2], the MRT was 10.4 ± 1.9 h and the Cmax was 155 ± 26 ng/mL. The molecule also yielded an IC50 on human mPGES1 of 2.68 nM.

The molecule `Cn1c(-c2ccc(Cl)cc2)cc2cc(NC(=O)c3cc(CNC(=O)C(C)(C)F)cnc3C(F)F)ccc21` [Example 14, N-(2-(4-Chlorophenyl)-1-methyl-1H-indol-5-yl)-2-(difluoromethyl)-5-(((2-fluoro-2-methyl-propanoyl)amino)methyl)nicotinamide] showed an IC50 in data set [1] (A549, 24 h) of 20.5 nM. Also, in data set [2], the Vd/F turned out to be 17.9 ± 3.12 L/kg, the AUC was 1790 ± 984 ng·h/mL, the CL/F was determined as 56.7 ± 25.4 mL/min/kg and the half-life was 4.15 ± 1.59 h. Also, in data set [2], the MRT was 9.25 ± 2.24 h and the highest concentration (Cmax) stood at 150 ± 56 ng/mL. At human mPGES1, this molecule yielded an IC50 of 4.59 nM.

For the origin of these results see US10081629B2, “Amide derivatives and pharmaceutically acceptable salts thereof, preparation method thereof and medicinal application thereof” (Shanghai Hengrui Pharmaceutical Co., Ltd., priority 2014, dated 2018).
